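96-well plates; 48 h exposure; 5 concentrations. Endpoints by linear interpolation between flanking doses. Not reached: highest tested concentration assigned. At the GI50, growth is halved.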 Calls of active or inactive are those of the source. Rule as the data show it: active = GI50 up to about 1.1 µM and inactive = higher. Starred links: 1 amine or outer side, 2 acyl side, 3 side chain; linkers in the order of their positions; H or OH if unused. Positions of bridges follow the written chain, without caps; N, C: chain ends. Non-standard residues stand in square brackets, D forms with d. Residues, ends and D or L forms follow the SMILES beside them. Chains are numbered I, II in the order given. Actinocin(1to9) = Cc1c2oc3c(C)ccc(C(=O)[*:2])c3nc-2c(C(=O)[*:1])c(N)c1=O; aThr = C[C@H](O)[C@H](N)C(=O)O; NMeV = CN[C@H](C(=O)O)C(C)C; Sar = CNCC(=O)O
Columns and labels:
Test in all cases: DTP human tumour cell line panel, 48 h
EKVX = system: EKVX
MOLT-4 = system: MOLT-4
HT-29 = system: HT-29
UACC-257 = system: UACC-257
RXF 393 = system: RXF 393
BT-549 = system: BT-549
786-0 = system: 786-0
LOX IMVI = system: LOX IMVI
T47D = system: T47D
SK-MEL-28 = system: SK-MEL-28
CAKI-1 = system: CAKI-1
HCT-15 = system: HCT-15
Hs-578T = system: Hs-578T
UO-31 = system: UO-31
UACC-62 = system: UACC-62
NCI-H226 = system: NCI-H226
SNB-19 = system: SNB-19
CCRF-CEM = system: CCRF-CEM
HCT-116 = system: HCT-116
SK-OV-3 = system: SK-OV-3

SMILES	GI50 (EKVX)	GI50 (MOLT-4)	GI50 (HT-29)	GI50 (UACC-257)	GI50 (RXF 393)	GI50 (BT-549)	GI50 (786-0)	GI50 (LOX IMVI)	GI50 (T47D)	GI50 (SK-MEL-28)	GI50 (CAKI-1)	GI50 (HCT-15)	GI50 (Hs-578T)	GI50 (UO-31)	GI50 (UACC-62)	GI50 (NCI-H226)	GI50 (SNB-19)	GI50 (CCRF-CEM)	GI50 (HCT-116)	GI50 (SK-OV-3)
CC(=O)OC(CC(C)C)P1(=O)N(CC(C)(C)C)[C@@H]2CCCC[C@H]2N1CC(C)(C)C (stereo not given in full)	11.2 µM (inactive)	9.62 µM (inactive)	7.1 µM (inactive)	8.41 µM (inactive)	6.38 µM (inactive)	15.5 µM (inactive)	10.8 µM (inactive)	11.9 µM (inactive)	5.36 µM (inactive)	14.2 µM (inactive)	12.7 µM (inactive)	9.82 µM	9.75 µM (inactive)	8.65 µM (inactive)	10.1 µM (inactive)	10.4 µM (inactive)	9.29 µM (inactive)	13.2 µM (inactive)	5.24 µM (inactive)	15.1 µM (inactive)
COc1ccc(-c2nc(N)n(C)c2SSc2c(-c3ccc(OC)cc3)nc(N)n2C)cc1	20.8 µM (inactive)	2.13 µM (inactive)	9.59 µM (inactive)	5.96 µM (inactive)	2.74 µM (inactive)	2.32 µM (inactive)	5.77 µM (inactive)	2.03 µM (inactive)	1.86 µM (inactive)	3.61 µM (inactive)	10.1 µM (inactive)	3.04 µM	9.16 µM (inactive)	5.25 µM (inactive)	3.81 µM (inactive)	17.4 µM (inactive)	12.9 µM (inactive)	2.76 µM (inactive)	2.65 µM (inactive)	18.6 µM (inactive)
CN(C)/C=N/c1c2c(nc3ccccc13)CCCC2	> 100 µM (inactive)	59.8 µM (inactive)	36.7 µM (inactive)	71 µM (inactive)	> 100 µM (inactive)	> 100 µM (inactive)	> 100 µM (inactive)	91 µM (inactive)	66.2 µM (inactive)	44.2 µM (inactive)	> 100 µM (inactive)	> 100 µM	> 100 µM (inactive)	67.8 µM (inactive)	> 100 µM (inactive)	36 µM (inactive)	> 100 µM (inactive)	44 µM (inactive)	39.1 µM (inactive)	> 100 µM (inactive)
CC(=O)C(=[N+]=[N-])C(=O)N1CCOC1=O	> 10 µM (inactive)	> 10 µM (inactive)	> 10 µM (inactive)	> 10 µM (inactive)	> 10 µM (inactive)	> 10 µM (inactive)	> 10 µM (inactive)	> 10 µM (inactive)	> 10 µM (inactive)	> 10 µM (inactive)	> 10 µM (inactive)	> 10 µM	> 10 µM (inactive)	> 10 µM (inactive)	> 10 µM (inactive)	> 10 µM (inactive)	> 10 µM (inactive)	> 10 µM (inactive)	> 10 µM (inactive)	> 10 µM (inactive)
CCOC(=O)NC(Nc1ccc(OC(F)(F)F)cc1)(C(F)(F)F)C(F)(F)F	> 100 µM (inactive)	> 100 µM (inactive)	> 100 µM (inactive)	> 100 µM (inactive)	> 100 µM (inactive)	> 100 µM (inactive)	> 100 µM (inactive)	> 100 µM (inactive)	> 100 µM (inactive)	> 100 µM (inactive)	> 100 µM (inactive)	> 100 µM	> 100 µM (inactive)	> 100 µM (inactive)	> 100 µM (inactive)	> 100 µM (inactive)	> 100 µM (inactive)	> 100 µM (inactive)	> 100 µM (inactive)	> 100 µM (inactive)
COC(=O)/C(=C(/C)c1ccco1)P(=O)(OC)OC	> 100 µM (inactive)	> 100 µM (inactive)	> 100 µM (inactive)	> 100 µM (inactive)	> 100 µM (inactive)	> 100 µM (inactive)	> 100 µM (inactive)	> 100 µM (inactive)	> 100 µM (inactive)	> 100 µM (inactive)	> 100 µM (inactive)	> 100 µM	> 100 µM (inactive)	0.01 µM (active)	> 100 µM (inactive)	> 100 µM (inactive)	> 100 µM (inactive)	> 100 µM (inactive)	> 100 µM (inactive)	> 100 µM (inactive)
CC1(C)N=C(N)N=C(N)N1c1cccc(OCc2cccc(N)c2)c1	> 88.3 µM (inactive)	8.02 µM (inactive)	16.9 µM (inactive)	6.14 µM (inactive)	41.9 µM (inactive)	> 65.9 µM (inactive)	10.9 µM (inactive)	9.46 µM (inactive)	> 100 µM (inactive)	> 100 µM (inactive)	> 100 µM (inactive)	> 100 µM	> 100 µM (inactive)	> 100 µM (inactive)	6.11 µM (inactive)	> 100 µM (inactive)	23.8 µM (inactive)	4.85 µM (inactive)	13.3 µM (inactive)	> 100 µM (inactive)
C=C1C(=O)O[C@@H]2[C@@H]3O[C@@H](C[C@@H]13)[C@](C)(O)CC/C=C(\C)CCC[C@@H]2C	15 µM (inactive)	3.35 µM (inactive)	17.3 µM (inactive)	12.3 µM (inactive)	13.6 µM (inactive)	12.6 µM (inactive)	5.42 µM (inactive)	4.75 µM (inactive)	18.7 µM (inactive)	15.8 µM (inactive)	13 µM (inactive)	11.6 µM	17.4 µM (inactive)	10.8 µM (inactive)	12.4 µM (inactive)	19.7 µM (inactive)	15.1 µM (inactive)	2.86 µM (inactive)	8.13 µM (inactive)	19.3 µM (inactive)
Cc1c2oc3c(C)ccc(C(=O)N[C@@H]4C(=O)N[C@H](C(C)C)C(=O)N5CCC[C@H]5C(=O)N(C)CC(=O)N(C)[C@@H](C(C)C)C(=O)O[C@H]4C)c3nc-2c(C(=O)N[C@@H]2C(=O)N[C@H](C(C)C)C(=O)N3CCC[C@H]3C(=O)N(C)CC(=O)N(C)[C@@H](C(C)C)C(=O)O[C@H]2C)c(N)c1=O (I: [aThr][dV]P[Sar][NMeV] / II: [aThr][dV]P[Sar][NMeV]; ester I:1-I:C, II:1-II:C; linker I:N-II:N via Actinocin(1to9))	0.012 µM (active)	0.00048 µM (active)	0.000759 µM (active)	0.00255 µM (active)	0.00258 µM (active)	0.00169 µM (active)	0.000951 µM (active)	0.000518 µM (active)	0.000628 µM (active)	0.00139 µM (active)	0.00484 µM (active)	0.02 µM	0.00187 µM (active)	0.015 µM (active)	0.000935 µM (active)	0.00195 µM (active)	0.00161 µM (active)	0.000863 µM (active)	0.000332 µM (active)	0.00869 µM (active)
CC(C)=CCC[C@@H](C)C1=CC(=O)C(C)=C(O)C1=O [ISOPEREZONE]	5.56 µM (inactive)	1.71 µM (inactive)	7.16 µM (inactive)	10.9 µM (inactive)	2.67 µM (inactive)	5.78 µM (inactive)	5.78 µM (inactive)	2.83 µM (inactive)	2.13 µM (inactive)	11 µM (inactive)	4.95 µM (inactive)	2.66 µM	6.43 µM (inactive)	3.69 µM (inactive)	9.33 µM (inactive)	7.19 µM (inactive)	15.9 µM (inactive)	1.19 µM (inactive)	4.08 µM (inactive)	17.9 µM (inactive)

— ChEMBL document CHEMBL1201862, “PubChem BioAssay data set” (2004)
